Measurements as given in patent publication US20230021483A1, “[…] […] METHOD AND CLASSIFICATION OF PHARMACEUTICAL COMPONENTS BY USING TRANSCRIPTOMES” (National Institutes of Biomedical Innovation, Health and …, priority 2016, published 2023).

Columns and labels:
[1] = tested on: adjuvant-associated biological themes in LV, SP, LN
Method in brief: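 Enrichment score S sums −log(p) over consensus themes whose names contain a pre-selected adjuvant-associated term such as "stress" or "cytokine". Consensus requires a theme in all three mice of a group, p<0.05. Themes come from TargetMine analysis of genes with eij/ei(c)>2.0, Fisher's exact test, Holm-Bonferroni-corrected.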

liver (LV) = experiment: Whole organ transcriptome (GeneChip microarray) of liver 6 h after adjuvant administration: sDEGs, hierarchical clustering; assay type: in vivo, C57BL/6 mice; conditions: i.d. administration, liver, 6 h after adjuvant

Substance: Monophosphoryl lipid A [MPLA]
- IFN alpha, GO annotation line 1 of 5 ([1]; LV, ID): 0
- IFN alpha, GO annotation line 2 of 5 ([1]; LV, ID): 0
- IFN alpha: cellular response to interferon-alpha ([1]; LV, ID): 0
- IFN alpha: positive regulation of interferon-alpha production ([1]; LV, ID): 0
- IFN alpha: regulation of interferon-alpha production ([1]; LV, ID): 0
- IFN beta: cellular response to interferon-beta ([1]; LV, ID): 0
- IFN beta: interferon-beta production ([1]; LV, ID): 0
- IFN beta: positive regulation of interferon-beta production ([1]; LV, ID): 0
- IFN beta: regulation of interferon-beta production ([1]; LV, ID): 0
- IFN beta: response to interferon-beta ([1]; LV, ID): 0
- IFN gamma: cellular response to interferon-gamma ([1]; LV, ID): 0
- IFN gamma: interferon-gamma production ([1]; LV, ID): 0
- IFN gamma: regulation of interferon-gamma production ([1]; LV, ID): 0
- IFN gamma: response to interferon-gamma ([1]; LV, ID): 0
- NF-kappa B signaling pathway, GO annotation line 1 of 4 ([1]; LV, ID): 0
- NF-kappa B signaling pathway, GO annotation line 2 of 4 ([1]; LV, ID): 0
- NF-kappa B signaling pathway, GO annotation line 3 of 4 ([1]; LV, ID): 0
- NF-kappa B signaling pathway, GO annotation line 4 of 4 ([1]; LV, ID): 0
- TNF signaling pathway ([1]; LV, ID): 3.93
- adaptive immune response, GO annotation line 1 of 5 ([1]; LV, ID): 0
- adaptive immune response, GO annotation line 2 of 5 ([1]; LV, ID): 0
- adaptive immune response, GO annotation line 3 of 5 ([1]; LV, ID): 0
- adaptive immune response, GO annotation line 4 of 5 ([1]; LV, ID): 0
- adaptive immune response, GO annotation line 5 of 5 ([1]; LV, ID): 0
- apoptosis, GO annotation line 1 of 8 ([1]; LV, ID): 0
- apoptosis, GO annotation line 2 of 8 ([1]; LV, ID): 0
- apoptosis, GO annotation line 3 of 8 ([1]; LV, ID): 0
- apoptosis, GO annotation line 4 of 8 ([1]; LV, ID): 0
- apoptosis, GO annotation line 5 of 8 ([1]; LV, ID): 0
- apoptosis, GO annotation line 6 of 8 ([1]; LV, ID): 0
- apoptosis, GO annotation line 7 of 8 ([1]; LV, ID): 0
- apoptosis, GO annotation line 8 of 8 ([1]; LV, ID): 0
- cell death, GO annotation line 1 of 9 ([1]; LV, ID): 0
- cell death, GO annotation line 2 of 9 ([1]; LV, ID): 0
- cell death, GO annotation line 3 of 9 ([1]; LV, ID): 0
- cell death, GO annotation line 4 of 9 ([1]; LV, ID): 0
- cell death, GO annotation line 5 of 9 ([1]; LV, ID): 0
- cell death, GO annotation line 6 of 9 ([1]; LV, ID): 0
- cell death, GO annotation line 7 of 9 ([1]; LV, ID): 0
- cell death, GO annotation line 8 of 9 ([1]; LV, ID): 0
- cell death, GO annotation line 9 of 9 ([1]; LV, ID): 0
- chemokine, GO annotation line 1 of 4 ([1]; LV, ID): 0
- chemokine, GO annotation line 2 of 4 ([1]; LV, ID): 0
- chemokine, GO annotation line 3 of 4 ([1]; LV, ID): 0
- chemokine, GO annotation line 4 of 4 ([1]; LV, ID): 0
- chemotaxis, GO annotation line 1 of 11 ([1]; LV, ID): 3.38
- chemotaxis, GO annotation line 2 of 11 ([1]; LV, ID): 0
- chemotaxis, GO annotation line 3 of 11 ([1]; LV, ID): 0
- chemotaxis, GO annotation line 4 of 11 ([1]; LV, ID): 0
- chemotaxis, GO annotation line 5 of 11 ([1]; LV, ID): 0
- chemotaxis, GO annotation line 6 of 11 ([1]; LV, ID): 0
- chemotaxis, GO annotation line 7 of 11 ([1]; LV, ID): 0
- chemotaxis, GO annotation line 8 of 11 ([1]; LV, ID): 0
- chemotaxis, GO annotation line 9 of 11 ([1]; LV, ID): 0
- chemotaxis, GO annotation line 10 of 11 ([1]; LV, ID): 0
- chemotaxis, GO annotation line 11 of 11 ([1]; LV, ID): 0
- cytokine, GO annotation line 1 of 17 ([1]; LV, ID): 0
- cytokine, GO annotation line 2 of 17 ([1]; LV, ID): 0
- cytokine, GO annotation line 3 of 17 ([1]; LV, ID): 0
- cytokine, GO annotation line 4 of 17 ([1]; LV, ID): 0
- cytokine, GO annotation line 5 of 17 ([1]; LV, ID): 0
- cytokine, GO annotation line 6 of 17 ([1]; LV, ID): 0
- cytokine, GO annotation line 7 of 17 ([1]; LV, ID): 0
- cytokine, GO annotation line 8 of 17 ([1]; LV, ID): 0
- cytokine, GO annotation line 9 of 17 ([1]; LV, ID): 0
- cytokine, GO annotation line 10 of 17 ([1]; LV, ID): 0
- cytokine, GO annotation line 11 of 17 ([1]; LV, ID): 0
- cytokine, GO annotation line 12 of 17 ([1]; LV, ID): 0
- cytokine, GO annotation line 13 of 17 ([1]; LV, ID): 0
- cytokine, GO annotation line 14 of 17 ([1]; LV, ID): 0
- cytokine, GO annotation line 15 of 17 ([1]; LV, ID): 0
- cytokine, GO annotation line 16 of 17 ([1]; LV, ID): 0
- cytokine, GO annotation line 17 of 17 ([1]; LV, ID): 0
- defense response, GO annotation line 1 of 11 ([1]; LV, ID): 0
- defense response, GO annotation line 2 of 11 ([1]; LV, ID): 0
- defense response, GO annotation line 3 of 11 ([1]; LV, ID): 0
- defense response, GO annotation line 4 of 11 ([1]; LV, ID): 0
- defense response, GO annotation line 5 of 11 ([1]; LV, ID): 0
- defense response, GO annotation line 6 of 11 ([1]; LV, ID): 0
- defense response, GO annotation line 7 of 11 ([1]; LV, ID): 0
- defense response, GO annotation line 8 of 11 ([1]; LV, ID): 0
- defense response, GO annotation line 9 of 11 ([1]; LV, ID): 0
- defense response, GO annotation line 10 of 11 ([1]; LV, ID): 0
- defense response, GO annotation line 11 of 11 ([1]; LV, ID): 0
- immune response, GO annotation line 1 of 8 ([1]; LV, ID): 0
- immune response, GO annotation line 2 of 8 ([1]; LV, ID): 0
- immune response, GO annotation line 3 of 8 ([1]; LV, ID): 0
- immune response, GO annotation line 4 of 8 ([1]; LV, ID): 0
- immune response, GO annotation line 5 of 8 ([1]; LV, ID): 0
- immune response, GO annotation line 6 of 8 ([1]; LV, ID): 0
- immune response, GO annotation line 7 of 8 ([1]; LV, ID): 0
- immune response, GO annotation line 8 of 8 ([1]; LV, ID): 0
- inflammatory response, GO annotation line 1 of 5 ([1]; LV, ID): 0
- inflammatory response, GO annotation line 2 of 5 ([1]; LV, ID): 0
- inflammatory response, GO annotation line 3 of 5 ([1]; LV, ID): 0
- inflammatory response, GO annotation line 4 of 5 ([1]; LV, ID): 0
- inflammatory response, GO annotation line 5 of 5 ([1]; LV, ID): 0
- innate immune response, GO annotation line 1 of 6 ([1]; LV, ID): 0
- innate immune response, GO annotation line 2 of 6 ([1]; LV, ID): 0
- innate immune response, GO annotation line 3 of 6 ([1]; LV, ID): 0
- innate immune response, GO annotation line 4 of 6 ([1]; LV, ID): 0
- innate immune response, GO annotation line 5 of 6 ([1]; LV, ID): 0
- innate immune response, GO annotation line 6 of 6 ([1]; LV, ID): 0
- interleukin-6: interleukin-6 production ([1]; LV, ID): 0
- interleukin-6: positive regulation of interleukin-6 production ([1]; LV, ID): 0
- interleukin-6: regulation of interleukin-6 production ([1]; LV, ID): 0
- interleukin-12: interleukin-12 production ([1]; LV, ID): 0
- interleukin-12: positive regulation of interleukin-12 production ([1]; LV, ID): 0
- interleukin-12: regulation of interleukin-12 production ([1]; LV, ID): 0
- migration, GO annotation line 1 of 10 ([1]; LV, ID): 0
- migration, GO annotation line 2 of 10 ([1]; LV, ID): 0
- migration, GO annotation line 3 of 10 ([1]; LV, ID): 0
- migration, GO annotation line 4 of 10 ([1]; LV, ID): 0
- migration, GO annotation line 5 of 10 ([1]; LV, ID): 0
- migration, GO annotation line 6 of 10 ([1]; LV, ID): 0
- migration, GO annotation line 7 of 10 ([1]; LV, ID): 0
- migration, GO annotation line 8 of 10 ([1]; LV, ID): 0
- migration, GO annotation line 9 of 10 ([1]; LV, ID): 0
- migration, GO annotation line 10 of 10 ([1]; LV, ID): 0
- stress, GO annotation line 1 of 3 ([1]; LV, ID): 0
- stress, GO annotation line 2 of 3 ([1]; LV, ID): 0
- stress, GO annotation line 3 of 3 ([1]; LV, ID): 0
- wounding, GO annotation line 1 of 3 ([1]; LV, ID): 0
- wounding, GO annotation line 2 of 3 ([1]; LV, ID): 0
- wounding, GO annotation line 3 of 3 ([1]; LV, ID): 0
- systemic organ (LV and SP) responses after i.d. local administration ([1]; i.d., fold change >2): limited responses in LV and SP
- Number of gene probes with statistically significant changes (sDEGs), LV, Down (liver (LV); fold change <0.667, p<0.01, customized PA call=1): 24
- Number of gene probes with statistically significant changes (sDEGs), LV, Up (liver (LV); fold change >1.5, p<0.01, customized PA call=1): 9
